# System: CAL-148
# Assay: normalised viability (% of control), CellTiter-Blue; higher = more viable cells (about 100 = DMSO control)
# Details: 1000 nM; incubation time: 72 h
# Protocol: (§1)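 DSRT, CellTiter-Blue viability, 72 h incubation. Signal is normalised to DMSO and benzethonium chloride controls. Value is the normalised response at dose 7.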
row,Structure (SMILES),normalised viability
1,Nc1ccccc1NC(=O)c1ccc(CNC(=O)OCc2cccnc2)cc1 [Entinostat],78.8%
2,C=CC(=O)Nc1cc2c(Nc3ccc(F)c(Cl)c3)ncnc2cc1OCCCN1CCOCC1 [Canertinib],68.6%
3,CC[C@H](Nc1ncnc2[nH]cnc12)c1nc2cccc(F)c2c(=O)n1-c1ccccc1 [CAL-101],79.9%
4,CCCCC(=O)OCC(=O)[C@]1(O)Cc2c(O)c3c(c(O)c2[C@@H](O[C@H]2C[C@H](NC(=O)C(F)(F)F)[C@H](O)[C@H](C)O2)C1)C(=O)c1c(OC)cccc1C3=O [Valrubicin],2.49%

# System: DU-4475
# Assay: as above
# Details: 1000 nM; incubation time: 72 h
# Protocol: as §1
row,Structure (SMILES),normalised viability
1,Nc1ccccc1NC(=O)c1ccc(CNC(=O)OCc2cccnc2)cc1 [Entinostat],121%
2,C=CC(=O)Nc1cc2c(Nc3ccc(F)c(Cl)c3)ncnc2cc1OCCCN1CCOCC1 [Canertinib],114%
3,CC[C@H](Nc1ncnc2[nH]cnc12)c1nc2cccc(F)c2c(=O)n1-c1ccccc1 [CAL-101],87.8%
4,CCCCC(=O)OCC(=O)[C@]1(O)Cc2c(O)c3c(c(O)c2[C@@H](O[C@H]2C[C@H](NC(=O)C(F)(F)F)[C@H](O)[C@H](C)O2)C1)C(=O)c1c(OC)cccc1C3=O [Valrubicin],2.39%

# System: CAL-51
# Assay: as above
# Details: 1000 nM; incubation time: 72 h
# Protocol: as §1
row,Structure (SMILES),normalised viability
1,Nc1ccccc1NC(=O)c1ccc(CNC(=O)OCc2cccnc2)cc1 [Entinostat],105%
2,C=CC(=O)Nc1cc2c(Nc3ccc(F)c(Cl)c3)ncnc2cc1OCCCN1CCOCC1 [Canertinib],101%
3,CC[C@H](Nc1ncnc2[nH]cnc12)c1nc2cccc(F)c2c(=O)n1-c1ccccc1 [CAL-101],81.9%
4,CCCCC(=O)OCC(=O)[C@]1(O)Cc2c(O)c3c(c(O)c2[C@@H](O[C@H]2C[C@H](NC(=O)C(F)(F)F)[C@H](O)[C@H](C)O2)C1)C(=O)c1c(OC)cccc1C3=O [Valrubicin],23.1%

# System: HDQ-P1
# Assay: as above
# Details: 1000 nM; incubation time: 72 h
# Protocol: as §1
row,Structure (SMILES),normalised viability
1,Nc1ccccc1NC(=O)c1ccc(CNC(=O)OCc2cccnc2)cc1 [Entinostat],111%
2,C=CC(=O)Nc1cc2c(Nc3ccc(F)c(Cl)c3)ncnc2cc1OCCCN1CCOCC1 [Canertinib],55.4%
3,CC[C@H](Nc1ncnc2[nH]cnc12)c1nc2cccc(F)c2c(=O)n1-c1ccccc1 [CAL-101],82.4%
4,CCCCC(=O)OCC(=O)[C@]1(O)Cc2c(O)c3c(c(O)c2[C@@H](O[C@H]2C[C@H](NC(=O)C(F)(F)F)[C@H](O)[C@H](C)O2)C1)C(=O)c1c(OC)cccc1C3=O [Valrubicin],58%

# System: MDA-MB-453
# Assay: as above
# Details: 1000 nM; incubation time: 72 h
# Protocol: as §1
row,Structure (SMILES),normalised viability
1,Nc1ccccc1NC(=O)c1ccc(CNC(=O)OCc2cccnc2)cc1 [Entinostat],89.1%
2,C=CC(=O)Nc1cc2c(Nc3ccc(F)c(Cl)c3)ncnc2cc1OCCCN1CCOCC1 [Canertinib],33.8%
3,CC[C@H](Nc1ncnc2[nH]cnc12)c1nc2cccc(F)c2c(=O)n1-c1ccccc1 [CAL-101],87.7%
4,CCCCC(=O)OCC(=O)[C@]1(O)Cc2c(O)c3c(c(O)c2[C@@H](O[C@H]2C[C@H](NC(=O)C(F)(F)F)[C@H](O)[C@H](C)O2)C1)C(=O)c1c(OC)cccc1C3=O [Valrubicin],55.7%

# System: CAL-85-1
# Assay: as above
# Details: 1000 nM; incubation time: 72 h
# Protocol: as §1
row,Structure (SMILES),normalised viability
1,Nc1ccccc1NC(=O)c1ccc(CNC(=O)OCc2cccnc2)cc1 [Entinostat],85.4%
2,C=CC(=O)Nc1cc2c(Nc3ccc(F)c(Cl)c3)ncnc2cc1OCCCN1CCOCC1 [Canertinib],49.5%
3,CC[C@H](Nc1ncnc2[nH]cnc12)c1nc2cccc(F)c2c(=O)n1-c1ccccc1 [CAL-101],80.5%
4,CCCCC(=O)OCC(=O)[C@]1(O)Cc2c(O)c3c(c(O)c2[C@@H](O[C@H]2C[C@H](NC(=O)C(F)(F)F)[C@H](O)[C@H](C)O2)C1)C(=O)c1c(OC)cccc1C3=O [Valrubicin],61.3%

# System: CAL-148
# Assay: as above
# Details: 10 nM; incubation time: 72 h
# Protocol: (§2)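 DSRT, CellTiter-Blue viability, 72 h incubation. Signal is normalised to DMSO and benzethonium chloride controls. Value is the normalised response at dose 3.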
row,Structure (SMILES),normalised viability
1,Nc1ccccc1NC(=O)c1ccc(CNC(=O)OCc2cccnc2)cc1 [Entinostat],93.3%
2,C=CC(=O)Nc1cc2c(Nc3ccc(F)c(Cl)c3)ncnc2cc1OCCCN1CCOCC1 [Canertinib],81.9%
3,CC[C@H](Nc1ncnc2[nH]cnc12)c1nc2cccc(F)c2c(=O)n1-c1ccccc1 [CAL-101],96.2%
4,CCCCC(=O)OCC(=O)[C@]1(O)Cc2c(O)c3c(c(O)c2[C@@H](O[C@H]2C[C@H](NC(=O)C(F)(F)F)[C@H](O)[C@H](C)O2)C1)C(=O)c1c(OC)cccc1C3=O [Valrubicin],91.6%

# System: BT-549
# Assay: as above
# Details: 100 nM; incubation time: 72 h
# Protocol: as §2
row,Structure (SMILES),normalised viability
1,Nc1ccccc1NC(=O)c1ccc(CNC(=O)OCc2cccnc2)cc1 [Entinostat],91.5%
2,C=CC(=O)Nc1cc2c(Nc3ccc(F)c(Cl)c3)ncnc2cc1OCCCN1CCOCC1 [Canertinib],114%
3,CC[C@H](Nc1ncnc2[nH]cnc12)c1nc2cccc(F)c2c(=O)n1-c1ccccc1 [CAL-101],102%
4,CCCCC(=O)OCC(=O)[C@]1(O)Cc2c(O)c3c(c(O)c2[C@@H](O[C@H]2C[C@H](NC(=O)C(F)(F)F)[C@H](O)[C@H](C)O2)C1)C(=O)c1c(OC)cccc1C3=O [Valrubicin],85.2%

# System: DU-4475
# Assay: as above
# Details: 10 nM; incubation time: 72 h
# Protocol: as §2
row,Structure (SMILES),normalised viability
1,Nc1ccccc1NC(=O)c1ccc(CNC(=O)OCc2cccnc2)cc1 [Entinostat],117%
2,C=CC(=O)Nc1cc2c(Nc3ccc(F)c(Cl)c3)ncnc2cc1OCCCN1CCOCC1 [Canertinib],108%
3,CC[C@H](Nc1ncnc2[nH]cnc12)c1nc2cccc(F)c2c(=O)n1-c1ccccc1 [CAL-101],98.6%
4,CCCCC(=O)OCC(=O)[C@]1(O)Cc2c(O)c3c(c(O)c2[C@@H](O[C@H]2C[C@H](NC(=O)C(F)(F)F)[C@H](O)[C@H](C)O2)C1)C(=O)c1c(OC)cccc1C3=O [Valrubicin],89.4%

# System: CAL-51
# Assay: as above
# Details: 10 nM; incubation time: 72 h
# Protocol: as §2
row,Structure (SMILES),normalised viability
1,Nc1ccccc1NC(=O)c1ccc(CNC(=O)OCc2cccnc2)cc1 [Entinostat],114%
2,C=CC(=O)Nc1cc2c(Nc3ccc(F)c(Cl)c3)ncnc2cc1OCCCN1CCOCC1 [Canertinib],109%
3,CC[C@H](Nc1ncnc2[nH]cnc12)c1nc2cccc(F)c2c(=O)n1-c1ccccc1 [CAL-101],84.7%
4,CCCCC(=O)OCC(=O)[C@]1(O)Cc2c(O)c3c(c(O)c2[C@@H](O[C@H]2C[C@H](NC(=O)C(F)(F)F)[C@H](O)[C@H](C)O2)C1)C(=O)c1c(OC)cccc1C3=O [Valrubicin],92.2%

# System: CAL-120
# Assay: as above
# Details: 100 nM; incubation time: 72 h
# Protocol: as §2
row,Structure (SMILES),normalised viability
1,Nc1ccccc1NC(=O)c1ccc(CNC(=O)OCc2cccnc2)cc1 [Entinostat],85.4%
2,C=CC(=O)Nc1cc2c(Nc3ccc(F)c(Cl)c3)ncnc2cc1OCCCN1CCOCC1 [Canertinib],81.5%
3,CC[C@H](Nc1ncnc2[nH]cnc12)c1nc2cccc(F)c2c(=O)n1-c1ccccc1 [CAL-101],97.2%
4,CCCCC(=O)OCC(=O)[C@]1(O)Cc2c(O)c3c(c(O)c2[C@@H](O[C@H]2C[C@H](NC(=O)C(F)(F)F)[C@H](O)[C@H](C)O2)C1)C(=O)c1c(OC)cccc1C3=O [Valrubicin],77.3%

# System: HDQ-P1
# Assay: as above
# Details: 10 nM; incubation time: 72 h
# Protocol: as §2
row,Structure (SMILES),normalised viability
1,Nc1ccccc1NC(=O)c1ccc(CNC(=O)OCc2cccnc2)cc1 [Entinostat],102%
2,C=CC(=O)Nc1cc2c(Nc3ccc(F)c(Cl)c3)ncnc2cc1OCCCN1CCOCC1 [Canertinib],96.6%
3,CC[C@H](Nc1ncnc2[nH]cnc12)c1nc2cccc(F)c2c(=O)n1-c1ccccc1 [CAL-101],112%
4,CCCCC(=O)OCC(=O)[C@]1(O)Cc2c(O)c3c(c(O)c2[C@@H](O[C@H]2C[C@H](NC(=O)C(F)(F)F)[C@H](O)[C@H](C)O2)C1)C(=O)c1c(OC)cccc1C3=O [Valrubicin],120%

# System: BT-474
# Assay: as above
# Details: 100 nM; incubation time: 72 h
# Protocol: as §2
row,Structure (SMILES),normalised viability
1,Nc1ccccc1NC(=O)c1ccc(CNC(=O)OCc2cccnc2)cc1 [Entinostat],106%
2,C=CC(=O)Nc1cc2c(Nc3ccc(F)c(Cl)c3)ncnc2cc1OCCCN1CCOCC1 [Canertinib],55.7%
3,CC[C@H](Nc1ncnc2[nH]cnc12)c1nc2cccc(F)c2c(=O)n1-c1ccccc1 [CAL-101],112%
4,CCCCC(=O)OCC(=O)[C@]1(O)Cc2c(O)c3c(c(O)c2[C@@H](O[C@H]2C[C@H](NC(=O)C(F)(F)F)[C@H](O)[C@H](C)O2)C1)C(=O)c1c(OC)cccc1C3=O [Valrubicin],109%

# System: MDA-MB-453
# Assay: as above
# Details: 10 nM; incubation time: 72 h
# Protocol: as §2
row,Structure (SMILES),normalised viability
1,Nc1ccccc1NC(=O)c1ccc(CNC(=O)OCc2cccnc2)cc1 [Entinostat],120%
2,C=CC(=O)Nc1cc2c(Nc3ccc(F)c(Cl)c3)ncnc2cc1OCCCN1CCOCC1 [Canertinib],95%
3,CC[C@H](Nc1ncnc2[nH]cnc12)c1nc2cccc(F)c2c(=O)n1-c1ccccc1 [CAL-101],97.4%
4,CCCCC(=O)OCC(=O)[C@]1(O)Cc2c(O)c3c(c(O)c2[C@@H](O[C@H]2C[C@H](NC(=O)C(F)(F)F)[C@H](O)[C@H](C)O2)C1)C(=O)c1c(OC)cccc1C3=O [Valrubicin],103%
